37 compounds from ChEMBL document CHEMBL1135265, “Squaric acid derivatives as VLA-4 integrin antagonists” (Bioorg Med Chem Lett, 2002) can be followed below.

A short description of data set [1]: Rate constant (k) of clearance from isolated perfused rat liver (IPRL). It is filed as ADME.
Data set [2] has as its target T1, Integrin alpha-4/beta-1 (Homo sapiens, UniProt P05556+P13612). The experiment in a line: Inhibition of binding of Very late antigen 4/vascular cell adhesion molecule 1 in a cell based ligand binding assay (Jurkat cells).
For data set [3], the target named is T1, Integrin alpha-4/beta-1. Put plainly: Inhibition of binding of Very late antigen 4/vascular cell adhesion molecule 1 in a protein-based ligand binding assay. The class given is protein-complex assay.
The target in data set [4] is T1, Integrin alpha-4/beta-1. Put plainly: Inhibition of Jurkat cell VLA-4 adhesion to VCAM-1. The class given is cell-based.
The target of data set [5] is T1, Integrin alpha-4/beta-1. Put plainly: Inhibition of very late antigen-4 (VLA-4)/vascular cell adhesion molecule-1(VCAM -1) interaction. It is filed as protein-complex assay.

T1 sequence (P05556 whole entry): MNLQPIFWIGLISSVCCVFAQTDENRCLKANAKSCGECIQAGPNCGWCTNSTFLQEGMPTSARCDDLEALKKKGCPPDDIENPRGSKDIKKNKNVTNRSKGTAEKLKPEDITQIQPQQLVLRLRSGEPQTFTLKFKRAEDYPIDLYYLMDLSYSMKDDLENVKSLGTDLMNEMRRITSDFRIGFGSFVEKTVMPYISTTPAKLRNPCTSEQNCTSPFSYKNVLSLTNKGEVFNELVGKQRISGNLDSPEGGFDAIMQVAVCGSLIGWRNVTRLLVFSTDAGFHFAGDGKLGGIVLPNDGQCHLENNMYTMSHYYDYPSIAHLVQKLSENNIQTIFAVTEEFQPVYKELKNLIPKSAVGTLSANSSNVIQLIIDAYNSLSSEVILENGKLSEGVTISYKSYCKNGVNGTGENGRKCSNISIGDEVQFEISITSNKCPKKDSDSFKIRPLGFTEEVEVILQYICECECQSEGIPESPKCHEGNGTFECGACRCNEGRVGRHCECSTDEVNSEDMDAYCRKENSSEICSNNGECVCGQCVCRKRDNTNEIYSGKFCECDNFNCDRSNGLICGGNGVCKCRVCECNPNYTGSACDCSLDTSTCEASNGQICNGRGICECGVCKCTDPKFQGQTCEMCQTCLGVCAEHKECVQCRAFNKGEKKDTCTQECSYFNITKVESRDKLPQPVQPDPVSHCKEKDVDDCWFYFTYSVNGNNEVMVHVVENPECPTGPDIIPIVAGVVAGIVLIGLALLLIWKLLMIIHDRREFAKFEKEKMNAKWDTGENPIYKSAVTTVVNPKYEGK
T1 sequence (P13612 whole entry): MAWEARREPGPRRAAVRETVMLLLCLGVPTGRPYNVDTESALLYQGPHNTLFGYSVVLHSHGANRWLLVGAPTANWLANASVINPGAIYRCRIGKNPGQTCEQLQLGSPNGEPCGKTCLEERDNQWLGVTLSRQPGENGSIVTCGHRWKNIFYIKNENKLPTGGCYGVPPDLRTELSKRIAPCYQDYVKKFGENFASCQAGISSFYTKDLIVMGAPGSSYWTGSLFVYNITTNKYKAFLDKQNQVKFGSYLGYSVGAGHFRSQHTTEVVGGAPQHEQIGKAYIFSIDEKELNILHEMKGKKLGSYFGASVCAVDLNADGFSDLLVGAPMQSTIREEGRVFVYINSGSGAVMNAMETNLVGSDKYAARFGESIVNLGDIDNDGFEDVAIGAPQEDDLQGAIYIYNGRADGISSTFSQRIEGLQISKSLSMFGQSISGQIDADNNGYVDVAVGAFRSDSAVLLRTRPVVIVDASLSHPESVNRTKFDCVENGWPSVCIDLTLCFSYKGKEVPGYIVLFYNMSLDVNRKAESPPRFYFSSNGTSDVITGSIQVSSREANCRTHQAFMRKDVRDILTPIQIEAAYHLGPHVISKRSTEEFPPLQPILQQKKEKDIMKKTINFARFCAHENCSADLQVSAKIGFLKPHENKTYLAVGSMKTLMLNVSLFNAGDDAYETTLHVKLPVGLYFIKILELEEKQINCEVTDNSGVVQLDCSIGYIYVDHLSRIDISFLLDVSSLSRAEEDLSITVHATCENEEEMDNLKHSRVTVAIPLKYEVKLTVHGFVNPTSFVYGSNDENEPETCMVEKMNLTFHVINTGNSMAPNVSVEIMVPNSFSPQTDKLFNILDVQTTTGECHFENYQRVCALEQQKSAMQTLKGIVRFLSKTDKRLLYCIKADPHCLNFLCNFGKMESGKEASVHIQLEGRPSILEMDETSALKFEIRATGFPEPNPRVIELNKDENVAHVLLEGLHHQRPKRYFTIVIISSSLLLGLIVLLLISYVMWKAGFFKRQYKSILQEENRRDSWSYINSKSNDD

By IC50 is commonly meant the point on the concentration scale where inhibition reaches its midpoint. A high value points to a need for much substance. Compound `O=C(Nc1ccc(C[C@H](/N=c2/c(N3CCNCC3)c(O)c2=O)C(=O)O)cc1)c1c(Cl)cncc1Cl` showed a k el in data set [1] of 0.00125 s⁻¹. Further, the IC50 was found to be 40 nM at Integrin alpha-4/beta-1 [2] and 0.4 nM on Integrin alpha-4/beta-1 [3].

For the compound `CCCCC/N=c1\c(O)c(O)\c1=N/[C@@H](Cc1ccc(NC(=O)c2c(Cl)cncc2Cl)cc1)C(=O)O`, the k el in data set [1] is 0.00025 s⁻¹. In addition, the figures for the 50% inhibitory concentration (IC50) on Integrin alpha-4/beta-1 [2] and at Integrin alpha-4/beta-1 [3] were 225 nM and 1 nM, respectively.

For `O=C(Nc1ccc(C[C@H](/N=c2\c(O)c(O)\c2=N/Cc2ccccc2)C(=O)O)cc1)c1c(Cl)cncc1Cl`, the k el in data set [1] is 0.00117 s⁻¹. The concentration for half-maximal inhibition (IC50) at Integrin alpha-4/beta-1 [2] stood at 320 nM; at Integrin alpha-4/beta-1 [3], 3.7 nM.

`O=C(Nc1ccc(C[C@H](/N=c2/c(N3CCOCC3)c(O)c2=O)C(=O)O)cc1)c1c(Cl)cncc1Cl`: the k el in data set [1] is 0.00139 s⁻¹. In addition, the values for the concentration for half-maximal inhibition (IC50) at Integrin alpha-4/beta-1 [2] and on Integrin alpha-4/beta-1 [3] were 11 nM and 0.5 nM, respectively.

In data set [1], `C=CC/N=c1\c(O)c(O)\c1=N/[C@@H](Cc1ccc(NC(=O)c2c(Cl)cncc2Cl)cc1)C(=O)O` had a k el of 0.000111 s⁻¹. Further, the half-inhibitory concentration (IC50) at Integrin alpha-4/beta-1 [2] turned out to be 120 nM; at Integrin alpha-4/beta-1 [3], 1 nM.

Regarding `CCC/N=c1\c(O)c(O)\c1=N/[C@@H](Cc1ccc(-c2ccccc2OC)cc1)C(=O)O`, the IC50 at Integrin alpha-4/beta-1 [2] amounted to 10800 nM; on Integrin alpha-4/beta-1 [3], 6.7 nM.

`CCN(C)c1c(N[C@@H](Cc2ccc(NC(=O)c3c(Cl)cncc3Cl)cc2)C(=O)O)c(=O)c1=O` had a k el in data set [1] of 0.00136 s⁻¹. Further, the IC50 was found to be 100 nM at Integrin alpha-4/beta-1 [2] and 0.2 nM at Integrin alpha-4/beta-1 [3].

In data set [1], `O=C(Nc1ccc(C[C@H](/N=c2\c(O)c(O)\c2=N/CCC(F)(F)F)C(=O)O)cc1)c1c(Cl)cncc1Cl` had a k el of 0.000389 s⁻¹. In addition, the IC50 at Integrin alpha-4/beta-1 [2] amounted to 90 nM.

`CCC/N=c1\c(O)c(O)\c1=N/[C@@H](Cc1ccc(OCc2c(Cl)cccc2Cl)cc1)C(=O)O`: the 50% inhibitory concentration (IC50) was 18300 nM against Integrin alpha-4/beta-1 [4] and 67 nM on Integrin alpha-4/beta-1 [5].

For the compound `CCN(CC)c1c(N[C@@H](Cc2ccc(Oc3ncccn3)cc2)C(=O)O)c(=O)c1=O`, the k el in data set [1] was 0.00075 s⁻¹. For the same compound, the values for the IC50 on Integrin alpha-4/beta-1 [2] and at Integrin alpha-4/beta-1 [3] were 2300 nM and 1.5 nM, respectively.

As for `CCC/N=c1\c(O)c(O)\c1=N/[C@@H](Cc1ccc(Oc2ncccn2)cc1)C(=O)O`, the k el in data set [1] is 0.000167 s⁻¹. Moreover, the IC50 is 8200 nM on Integrin alpha-4/beta-1 [2] and 6.9 nM on Integrin alpha-4/beta-1 [3].

`CCC/N=c1\c(O)c(O)\c1=N/[C@@H](Cc1ccc(NC(=O)c2c(Cl)cncc2Cl)cc1)C(=O)O` had a k el in data set [1] of 2.78e-05 s⁻¹. Further, the IC50 at Integrin alpha-4/beta-1 [2] was 120 nM; on Integrin alpha-4/beta-1 [3], 1.5 nM.

Turning to `CCN1CCN(c2c(N[C@@H](Cc3ccc(NC(=O)c4c(Cl)cncc4Cl)cc3)C(=O)O)c(=O)c2=O)CC1`, in data set [1], the k el is 0.00103 s⁻¹. The half-maximal inhibitory concentration (IC50) was found to be 60 nM on Integrin alpha-4/beta-1 [2] and 0.5 nM on Integrin alpha-4/beta-1 [3].

In turn, `CCCN(C)c1c(N[C@@H](Cc2ccc(NC(=O)c3c(Cl)cncc3Cl)cc2)C(=O)O)c(=O)c1=O` gave a k el in data set [1] of 0.00125 s⁻¹. For the same compound, the IC50 on Integrin alpha-4/beta-1 [2] was 13 nM; on Integrin alpha-4/beta-1 [3], 0.2 nM.

`CC(C)/N=c1\c(O)c(O)\c1=N/[C@@H](Cc1ccc(NC(=O)c2c(Cl)cncc2Cl)cc1)C(=O)O` gave a k el in data set [1] of 0.000722 s⁻¹. Also, the half-maximal inhibitory concentration (IC50) stood at 95 nM on Integrin alpha-4/beta-1 [2] and 1 nM on Integrin alpha-4/beta-1 [3].

In turn, `CCN(CC)c1c(N[C@@H](Cc2ccc(NC(=O)c3c(Cl)cncc3Cl)cc2)C(=O)O)c(=O)c1=O` gave a k el in data set [1] of 0.00161 s⁻¹. Moreover, the IC50 amounted to 3.5 nM on Integrin alpha-4/beta-1 [2] and 0.4 nM at Integrin alpha-4/beta-1 [3].

In data set [1], `O=C(Nc1ccc(C[C@H](/N=c2\c(O)c(O)\c2=N/C2CCC2)C(=O)O)cc1)c1c(Cl)cncc1Cl` showed a k el of 0.000139 s⁻¹. Besides, the IC50 on Integrin alpha-4/beta-1 [2] came out at 155 nM; on Integrin alpha-4/beta-1 [3], 2.6 nM.

Regarding `CCN(CC)c1c(N[C@@H](Cc2ccc(-c3ccccc3OC)cc2)C(=O)O)c(=O)c1=O`, the k el in data set [1] was 0.000611 s⁻¹. For the same compound, the IC50 was found to be 1160 nM on Integrin alpha-4/beta-1 [2] and 1.2 nM on Integrin alpha-4/beta-1 [3].

With `CC(C)(C)/N=c1\c(O)c(O)\c1=N/[C@@H](Cc1ccc(NC(=O)c2c(Cl)cncc2Cl)cc1)C(=O)O`, the k el in data set [1] is 0.000972 s⁻¹. The IC50 on Integrin alpha-4/beta-1 [2] is 690 nM; on Integrin alpha-4/beta-1 [3], 3.5 nM.

For the compound `O=C(Nc1ccc(C[C@H](/N=c2\c(O)c(O)\c2=N/CCCC(F)(F)F)C(=O)O)cc1)c1c(Cl)cncc1Cl`, the k el in data set [1] was 0.000306 s⁻¹. Moreover, the IC50 at Integrin alpha-4/beta-1 [2] turned out to be 370 nM; on Integrin alpha-4/beta-1 [3], 1 nM.

On to `CC(C)C/N=c1\c(O)c(O)\c1=N/[C@@H](Cc1ccc(NC(=O)c2c(Cl)cncc2Cl)cc1)C(=O)O`, for which the k el in data set [1] was 0.000361 s⁻¹. For the same compound, the figures for the concentration for half-maximal inhibition (IC50) at Integrin alpha-4/beta-1 [2] and at Integrin alpha-4/beta-1 [3] were 85 nM and 0.5 nM, respectively.

On to `CCN(CC)c1c(N[C@@H](Cc2ccc(-c3c(OC)cccc3OC)cc2)C(=O)O)c(=O)c1=O`, for which the k el in data set [1] was 0.00108 s⁻¹. Further, the IC50 stood at 180 nM at Integrin alpha-4/beta-1 [2] and 0.6 nM at Integrin alpha-4/beta-1 [3].

Turning to `CN(C)c1c(N[C@@H](Cc2ccc(NC(=O)c3c(Cl)cncc3Cl)cc2)C(=O)O)c(=O)c1=O`, the k el in data set [1] was 0.00128 s⁻¹. The 50% inhibitory concentration (IC50) at Integrin alpha-4/beta-1 [2] amounted to 590 nM; at Integrin alpha-4/beta-1 [3] it was 0.5 nM.

`CCC(C)/N=c1\c(O)c(O)\c1=N/[C@@H](Cc1ccc(NC(=O)c2c(Cl)cncc2Cl)cc1)C(=O)O` (stereo partly drawn) had a k el in data set [1] of 0.000861 s⁻¹. For the same compound, the half-maximal inhibitory concentration (IC50) came out at 160 nM at Integrin alpha-4/beta-1 [2] and 0.5 nM on Integrin alpha-4/beta-1 [3].

In data set [1], `O=C(Nc1ccc(C[C@H](/N=c2\c(O)c(O)\c2=N/C2CCCC2)C(=O)O)cc1)c1c(Cl)cncc1Cl` gave a k el of 0.000139 s⁻¹. Also, the IC50 on Integrin alpha-4/beta-1 [2] came to 290 nM; on Integrin alpha-4/beta-1 [3] it was 9 nM.

`C/N=c1\c(O)c(O)\c1=N/[C@@H](Cc1ccc(NC(=O)c2c(Cl)cncc2Cl)cc1)C(=O)O`: in data set [1], the k el is 0.00025 s⁻¹. Besides, the IC50 at Integrin alpha-4/beta-1 [2] stood at 990 nM; at Integrin alpha-4/beta-1 [3], 0.9 nM.

In data set [1], `O=C(Nc1ccc(C[C@H](/N=c2\c(O)c(O)\c2=N/C2CC2)C(=O)O)cc1)c1c(Cl)cncc1Cl` gave a k el of 0.000444 s⁻¹. In addition, the half-maximal inhibitory concentration (IC50) is 250 nM on Integrin alpha-4/beta-1 [2] and 1.5 nM at Integrin alpha-4/beta-1 [3].

Regarding `O=C(Nc1ccc(C[C@H](/N=c2\c(O)c(O)\c2=N/c2ccccc2)C(=O)O)cc1)c1c(Cl)cncc1Cl`, the k el in data set [1] was 0.000306 s⁻¹. Also, the IC50 on Integrin alpha-4/beta-1 [2] turned out to be 845 nM; on Integrin alpha-4/beta-1 [3], 50 nM.

In data set [1], `CCN(CC)c1c(N[C@@H](Cc2ccc(OCc3c(Cl)cccc3Cl)cc2)C(=O)O)c(=O)c1=O` gave a k el of 0.00108 s⁻¹. Also, the figures for the IC50 on Integrin alpha-4/beta-1 [2] and at Integrin alpha-4/beta-1 [3] were 12400 nM and 25 nM, respectively.

As to `CCCCN(CCCC)c1c(N[C@@H](Cc2ccc(NC(=O)c3c(Cl)cncc3Cl)cc2)C(=O)O)c(=O)c1=O`, the k el in data set [1] was 0.00183 s⁻¹. Besides, the IC50 was determined as 5.7 nM at Integrin alpha-4/beta-1 [2] and 2 nM on Integrin alpha-4/beta-1 [3].

Take `O=C(Nc1ccc(C[C@H](/N=c2/c(N3CCSCC3)c(O)c2=O)C(=O)O)cc1)c1c(Cl)cncc1Cl`: the k el in data set [1] is 0.00158 s⁻¹. In addition, the IC50 at Integrin alpha-4/beta-1 [2] worked out at 3.1 nM; at Integrin alpha-4/beta-1 [3], 0.3 nM.

In data set [1], `O=C(Nc1ccc(C[C@H](/N=c2/c(N3CCCCC3)c(O)c2=O)C(=O)O)cc1)c1c(Cl)cncc1Cl` had a k el of 0.00131 s⁻¹. In addition, the values for the IC50 at Integrin alpha-4/beta-1 [2] and at Integrin alpha-4/beta-1 [3] were 8.4 nM and 0.4 nM, respectively.

Regarding `CCCC(C)/N=c1\c(O)c(O)\c1=N/[C@@H](Cc1ccc(NC(=O)c2c(Cl)cncc2Cl)cc1)C(=O)O` (stereo partly drawn), in data set [1], the k el was 0.000667 s⁻¹. Further, the half-inhibitory concentration (IC50) turned out to be 50 nM at Integrin alpha-4/beta-1 [2] and 0.6 nM at Integrin alpha-4/beta-1 [3].

`CCCC/N=c1\c(O)c(O)\c1=N/[C@@H](Cc1ccc(NC(=O)c2c(Cl)cncc2Cl)cc1)C(=O)O` gave a k el in data set [1] of 0.000361 s⁻¹. Also, the half-maximal inhibitory concentration (IC50) at Integrin alpha-4/beta-1 [2] amounted to 130 nM; on Integrin alpha-4/beta-1 [3], 0.4 nM.

`COCC/N=c1\c(O)c(O)\c1=N/[C@@H](Cc1ccc(NC(=O)c2c(Cl)cncc2Cl)cc1)C(=O)O`: the k el in data set [1] is 0.0005 s⁻¹. The IC50 on Integrin alpha-4/beta-1 [2] was 75 nM; at Integrin alpha-4/beta-1 [3], 1.2 nM.

The compound `CC/N=c1\c(O)c(O)\c1=N/[C@@H](Cc1ccc(NC(=O)c2c(Cl)cncc2Cl)cc1)C(=O)O` showed a k el in data set [1] of 0.000556 s⁻¹. Further, the figures for the IC50 at Integrin alpha-4/beta-1 [2] and on Integrin alpha-4/beta-1 [3] were 425 nM and 0.6 nM, respectively.

The compound `CCC/N=c1\c(O)c(O)\c1=N/[C@@H](Cc1ccc(-c2c(OC)cccc2OC)cc1)C(=O)O` gave a k el in data set [1] of 0.000194 s⁻¹. Also, the half-maximal inhibitory concentration (IC50) on Integrin alpha-4/beta-1 [2] worked out at 710 nM; at Integrin alpha-4/beta-1 [3] it was 2.1 nM.
